Tested on: Plasmodium berghei
Experiment: Luciferase/luciferin-expressing antifolate-resistant parasites were used to infect a culture of HepG2 cells that were pre-incubated with compounds. Infected hepatocytes emit light due to the luciferase reaction. Assay results are presented as the percent inhibition of light emission compared to control. […]
Assay type: functional
Details: sporozoite

O=C1c2ccccc2C(=O)c2sccc21 [THIOPHENONAPHTHOQUINONE]
IC50 (PBLUC_HILL_SLOPE 0.947, PBLUC_R_SQUARED 0.583, read-out: LUCIFERASE INFECTION ASSAY - IC50): 2810 nM | IC90 (read-out: LUCIFERASE INFECTION ASSAY - IC90): > 15400 nM

— ChEMBL document CHEMBL4483862, “Open-source discovery of chemical leads for next-generation chemoprotective antimalarials” (2018)
